“And” between values parts separate entries of the source, which are not always exact repeats. Equal entries are not always repeated. No end group written: not given here.
Key:
S. aureus ATCC 25923 = test: Biofilm formation in peptide-coated PDMS channels under flow; assay type: cell-based, Staphylococcus aureus; conditions: peptide co-immobilized on pDa-coated PDMS channel, 24 h flow
Method: (§1) Formation of the biofilm inside the PDMS flow chambers was performed using three peristaltic pumps working simultaneously (LP-pump, Kamush, Lipopharm, Poland) and sterile Tygon® 3350 silicone hoses (2.4 × 0.8 × 0.8 mm) with a length of 30 and 50 cm for inlet and outlet, respectively. Bacterial suspensions were prepared (0.5 × 10^7 CFU/mL) in sterile 50-mL test tubes, which were placed in a heating block at 37 °C. Before experiments, all channels were assessed for tightness and sterilized using a 70% 2-propanol solution (10 min, flow rate 1 mL/min) and rinsed with sterile PBS solution (10 min, flow 0.1 mL/min). The formation of biofilm inside the channels was divided into three stages: (1) adhesion—at this stage S. aureus suspensions were passed through the channels for 4 h at a flow rate of 0.1 mL/min; (2) rinsing—the previously used hoses were replaced with new sterile ones, and the channels were rinsed with sterile PBS solution for 10 min at a flow rate of 0.1 mL/min; (3) biofilm growth—after flushing the channels, the silicone hoses were placed in tubes with MHB medium, which was passed through the channels for 24 h at a flow rate of 0.1 mL/min. All experiments included growth and sterility controls.
(§2) Incorporation of omiganan and retro-omiganan into PDMS channels was conducted using a polydopamine (pDa) coating, as previously described with a slight modification resulting from flow-based experimental model. To do this, the pDa coating was done by rinsing the channels with a solution of dopamine hydrochloride (Sigma-Aldrich, 2 mg/mL) in 10 mM bicin buffer (pH 8.5) for 18 h, 0.3 mL/min in a closed system (Fig. 3A). Then, the channels were rinsed with a sterile solution of demineralized water. Further co-immobilization was conducted using new, sterile silicone hoses connected to flow chambers and test tubes containing aqueous solutions of the peptides (100 µg/mL) pumped through the channels in a closed system for 6 h at 0.3 mL/min (Fig. 3B). Assessment of peptide binding was performed using liquid chromatography (RP-HPLC), by comparing the content of the compounds in the solution before and after incorporation. Waters Alliance e2695 system with a Waters 2998 PDA Detector (software-Empower 3, Waters, Milford, MA, USA) was used. All analyses were carried out on a Waters X-Bridge Shield RP-18 column (3.0 × 100 mm, 3.5 μm particle size, 130 Å pore size) with UV detection at 214 nm and samples (10 μL) were eluted with a linear 10–90% acetonitrile gradient in deionized water over 15 min at 25.0 ± 0.1 °C. The mobile phase flow rate was 0.5 mL/min. Both eluents contained 0.1% (v/v) of TFA. Each peptide sample was analyzed in triplicate. Such functionalized PDMS channels were used for further studies on biofilm formation. […]

[1] = system: S. aureus ATCC 33591 (MRSA); test: as above; assay type: cell-based, Staphylococcus aureus; conditions: peptide co-immobilized on pDa-coated PDMS channel, 24 h flow
Method: as §1, §2

[2] = system: mupirocin-resistant MRSA strains; design: method as in PMID 28581672; conditions: all mupirocin-resistant MRSA strains analyzed; cited from earlier work
[3] = incubation with human skin S9 protease; cited from earlier work

Substance	reduction of bacteria forming biofilm relative to control (S. aureus ATCC 25923)	reduction of bacteria forming biofilm relative to control [1]	MIC [2]	half-life [3]
ILRWPWWPWRRK-NH2 [Omiganan]	71%	98%	12.5 µM and 22.7 µg/mL	ca. 10 min
KRRWPWWPWRLI-NH2 [Retro-Omiganan]	81%	96%		

— publication PMC12055641, “The Study of Antistaphylococcal Potential of Omiganan and Retro-Omiganan Under Flow Conditions” (Probiotics and Antimicrobial Proteins, 2024)
